Data on one molecule can be found in patent publication US8758769B2, “Composition for preventing and treating acetaminophen inducing liver injury comprising the protein extract from Porphyra yezoensis” (Pukyong National University Industry Academic Cooperation …, priority 2006, dated 2014).

The test system of data set [1] is DNA within the liver tissue. Nature of the data set: DNA fragmentation in the liver tissue. Format: in vivo, rat. Particulars: rats, AAP 700 mg/kg. The source says: To confirm the modes of the cell apoptosis, DNA within the liver tissue is extracted and then the degree of fragmentation is examined.
The conditions of data set [2]: rats, mean ± S.D. of 10 per group; AAP 700 mg/kg into the abdominal cavity, seaweed protein orally for two weeks.
Method: Animals for the experiment are male rats (body weight of 100±10 g), as Sparague Dawley of four-week-old, obtained from Hyochang science. 10 rats are divided into three groups, respectively (control group, AAP sole administration group and AAP+seaweed protein administration group), bred in row breeding cages for 7 days as a domestication preparation breeding. At this time, the temperature (22±1° C.), humidity (50±10%) and brightness (12 hours, 08˜18:00) of a breeding room are strictly controlled. After performing the domestication preparation breeding, general feed and water are freely supplied and then a saline solution (control group and AAP sole administration group) and the seaweed protein are orally administrated for two weeks. 700 mg/kg of AAP melted by DMSO is administrated into the abdominal cavity and after 24 hours, heads of rats are cut and then a blood-gathering process is performed. […] And the liver is extracted and washed by the saline solution and thereafter the weight thereof is measured and a part thereof is fixed into the bouin solution (picric acid:formalin:glacial acid=15:5:1). […]
To examine the influence on the liver tissue, liver weight and the change of body weight of the seaweed protein separated and purified at the example 1, the liver tissue of a rat is extracted and its weight is measured.

Consider `CC(=O)Nc1ccc(O)cc1` [AAP, Acetaminophen], for which the “DNA fragmentation in the liver tissue (FIG. 6(B))” value in data set [1] is given as “a certain DNA fraction is observed”. In data set [2], the Final body weight amounted to 299 ± 14.92 g and the Weight of liver was 10.86 ± 0.9 g.
